The test system of data set [1] is FtsZ-G196A Staphylococcus aureus (Isolate ID GG/190723/sa/1.2). The data set is described as follows: Bacterial assay: MIC, FtsZ G196A mutant strain. In kind it is cell-based. As to conditions: read-out: MIC (μg/mL) FtsZ G196A mutant strain. Here is the method:
Compounds are tested for antimicrobial activity by susceptibility testing in liquid or on solid media. Minimum inhibitory concentrations (MICs) for compounds against each strain are determined by the broth microdilution or agar dilution method according to the guidelines of the Clinical Laboratories and Standards Institute, formerly the National Committee for Clinical Laboratory Standards (Clinical Laboratories and Standards Institute. Methods for Dilution Antimicrobial Susceptibility Tests for Bacteria That Grow Aerobically; Approved Standard—Seventh Edition. Document M7-A7. CLSI, Wayne, Pa., 2006; Clinical Laboratories and Standards Institute). The bacterial strains tested include S. aureus (Staphylococcus aureus (Isolate ID ATCC 29213)) and an FtsZ mutant of this isolate (FtsZ-G196A Staphylococcus aureus (Isolate ID GG/190723/sa/1.2)). Compound MICs were determined to be in the following activity ranges “A” activity≦0.25 μg/mL; “B” activity>0.25 μg/mL-1.0 μg/mL; “C” activity>1.0 μg/mL-16 μg/mL; “D” activity>16 μg/mL and ND=not determined. The bracketed entries indicate entantiomer(s) and their activity.
The comparative activity of selected compounds having a bromo-substituted oxazole against their corresponding non-brominated analogues is shown in Table 4.

Data set [2] relates to Staphylococcus aureus (Isolate ID ATCC 29213). The data set is described as follows: Bacterial assay: MIC by broth microdilution or agar dilution (CLSI), S. aureus ATCC 29213. As to conditions: for MIC: Staphylococcus aureus, ATCC29213, read-out: S. aureus MIC (μg/mL) Activity Range, S. aureus (ATCC29213). In kind it is cell-based. The gist of the method: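 MICs by CLSI broth microdilution or agar dilution against S. aureus ATCC 29213 and its FtsZ-G196A mutant. Values reported as ranges: A ≤0.25 μg/mL, B >0.25–1.0, C >1.0–16, D >16 μg/mL.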
A general note: Broth dilution looks for growth in wells or tubes with falling amounts of substance.

Data set [3] in a line: Pharmacokinetic assay: plasma concentration by LC/MS/MS after single intravenous or peroral dose of 3 mg/kg. In kind it is in vivo. The note with it: 3 mg/kg IV dosing in mice. Here is the method:
The pharmacokinetic profiles of selected comparator compounds A-N in Table 6 and compounds of the invention were determined by measuring the compound concentration in plasma by LC/MS/MS following a single intravenous or peroral administration of the compounds at a dose of 3 mg/kg. The concentrations described are the mean plasma concentrations at each time point from three animals. Intravenous dose formulation was administered as a single bolus dose through the tail vein. Oral dose formulation was administered to animals by an oral gavage needle. In both cases the dose volume was 5.0 mL/kg. Blood was collected from anesthetized mice through a capillary guided into the retro-orbital plexus. The collected blood was centrifuged to obtain plasma and the compounds extracted into methanol prior to determining the compound concentration by LC/MS/MS. The results are shown graphically in FIG. 1 and for the AUC and CL parameters in Table 6.

As a reminder, the AUC is concentration integrated over time.

Converted amounts (≈) assume the structure as drawn. Like-named read-outs stand apart in the source and are kept apart here.

For the compound `NC(=O)c1c(F)ccc(OC(CNC(=O)c2ccccc2)c2nc(-c3ccc(C(F)(F)F)cc3)c(Br)o2)c1F` (stereo not shown) [Compound 292, 3-(2-benzamido-1-(5-bromo-4-(4-(trifluoromethyl)phenyl)oxazol-2-yl)ethoxy)-2,6-difluorobenzamide], the values for the MIC in data set [1] and in data set [2] were 1 µg/mL (≈ 1.64 µM) and < 0.25 µg/mL, respectively.

On to `CC(Oc1ccc(F)c(C(N)=O)c1F)c1nc(-c2ccc(C(F)(F)F)cc2)c(Br)o1` (stereo not shown) [Compound 27, 3-(1-(5-bromo-4-(4-(trifluoromethyl)phenyl)oxazol-2-yl)ethoxy)-2,6-difluorobenzamide], for which the MIC in data set [2] was < 0.25 µg/mL. Also, in data set [3], the “AUC” value was determined as 2200 ng·h/mL and the “CL” value turned out to be 22 mL/min/kg.

For `Cc1noc(CCc2csc(COc3ccc(F)c(C(N)=O)c3F)n2)n1` [L, 2,6-difluoro-3-((4-(2-(3-methyl-1,2,4-oxadiazol-5-yl)ethyl)thiazol-2-yl)methoxy)benzamide], the clearance in data set [3] (mouse, plasma) came out at 59 mL/min/kg. For the same compound, in data set [3] (mouse, plasma, read-out: AUC), the AUC amounted to 800 ng·h/mL.

For the compound `NC(=O)c1c(F)ccc(OCc2nc3cc(-c4ccccc4)cnc3s2)c1F` [B], in data set [3], the “AUC” value was found to be 500 ng·h/mL and the “CL” value was 91 mL/min/kg.

`COC(=O)NCC(Oc1ccc(F)c(C(N)=O)c1F)c1nc(-c2ccc(C(F)(F)F)cc2)c(Br)o1` (stereo not shown) [Compound 288, methyl (2-(5-bromo-4-(4-(trifluoromethyl)phenyl)oxazol-2-yl)-2-(3-carbamoyl-2,4-difluorophenoxy)ethyl)carbamate]: the MIC was 16 µg/mL (≈ 28.4 µM) in data set [1] and 0.25 to 1 µg/mL (≈ 0.443 to 1.77 µM) in data set [2].

Consider `CCc1oc(COc2ccc(F)c(C(N)=O)c2F)nc1-c1ccc(OC)cc1` [I, 3-((5-ethyl-4-(4-methoxyphenyl)oxazol-2-yl)methoxy)-2,6-difluorobenzamide], for which, in data set [3], the “AUC” value came out at 200 ng·h/mL and the “CL” value stood at 319 mL/min/kg.

The compound `NC(=O)c1c(F)ccc(OCc2nc(-c3ccc(Cl)cc3)no2)c1F` [Compound A, 3-((3-(4-chlorophenyl)-1,2,4-oxadiazol-5-yl)methoxy)-2,6-difluorobenzamide] displayed a clearance in data set [3] (mouse, plasma) of 52 mL/min/kg. For the same compound, the AUC in data set [3] (mouse, plasma, read-out: AUC) is 900 ng·h/mL.

For the compound `NC(=O)c1c(F)ccc(OCc2nc(-c3ccc(Cl)nc3)cs2)c1F` [Compound F, 3-((4-(6-chloropyridin-3-yl)thiazol-2-yl)methoxy)-2,6-difluorobenzamide], the clearance in data set [3] (mouse, plasma) is 139 mL/min/kg. Besides, the AUC in data set [3] (mouse, plasma, read-out: AUC) came to 400 ng·h/mL.

For `NC(=O)c1c(F)ccc(O[C@H](COC(=O)CCC(=O)O)c2nc(-c3ccc(C(F)(F)F)cc3)c(Br)o2)c1F` [Compound 181, (R)-4-(2-(5-bromo-4-(4-(trifluoromethyl)phenyl)oxazol-2-yl)-2-(3-carbamoyl-2,4-difluorophenoxy)ethoxy)-4-oxobutanoic acid], the MIC in data set [2] lay within 1 to 16 µg/mL (≈ 1.65 to 26.3 µM). Also, the clearance in data set [3] (mouse, plasma) is 16 mL/min/kg. In addition, in data set [3] (mouse, plasma, read-out: AUC), the AUC is 3000 ng·h/mL.

`NC(=O)c1c(F)ccc(OCc2nc(-c3cnc(Cl)nc3)cs2)c1F` [H, 3-((4-(2-chloropyrimidin-5-yl)thiazol-2-yl)methoxy)-2,6-difluorobenzamide]: the clearance in data set [3] (mouse, plasma) worked out at 173 mL/min/kg. Further, the AUC in data set [3] (mouse, plasma, read-out: AUC) is 300 ng·h/mL.

`CC(Oc1ccc(F)c(C(N)=O)c1F)c1nc(-c2ccc(OC(F)(F)F)cc2)c(Cl)o1` (stereo not shown) [Compound 21, 3-(1-(5-chloro-4-(4-(trifluoromethoxy)phenyl)oxazol-2-yl)ethoxy)-2,6-difluorobenzamide]: the MIC in data set [2] is < 0.25 µg/mL. Besides, in data set [3], the “AUC” value came out at 1600 ng·h/mL and the “CL” value is 31 mL/min/kg.

With `CCCc1oc(COc2ccc(F)c(C(N)=O)c2F)nc1-c1ccc(Cl)cc1` [K], in data set [3], the “AUC” value was 400 ng·h/mL and the “CL” value was found to be 137 mL/min/kg.

Consider `CCOc1cnc2sc(COc3ccc(F)c(C(N)=O)c3F)nc2c1` [E], for which, in data set [3], the “AUC” value worked out at 200 ng·h/mL and the “CL” value came out at 203 mL/min/kg.

As to `COc1ccc(-c2nc(COc3ccc(F)c(C(N)=O)c3F)sc2-c2ccc(N(C)C)nc2)cc1` [D, 3-((5-(6-(dimethylamino)pyridin-3-yl)-4-(4-methoxyphenyl)thiazol-2-yl)methoxy)-2,6-difluorobenzamide], in data set [3] (mouse, plasma), the clearance stood at 55 mL/min/kg. Besides, the AUC in data set [3] (mouse, plasma, read-out: AUC) amounted to 900 ng·h/mL.

`Cc1ccc(-c2csc(COc3ccc(F)c(C(N)=O)c3F)n2)cn1` [Compound C, 2,6-difluoro-3-((4-(6-methylpyridin-3-yl)thiazol-2-yl)methoxy)benzamide]: the clearance in data set [3] (mouse, plasma) is 130 mL/min/kg. Further, in data set [3] (mouse, plasma, read-out: AUC), the AUC is 400 ng·h/mL.

As for `C=CCc1oc(COc2ccc(F)c(C(N)=O)c2F)nc1-c1cccc(O)c1` [Compound N, 3-((5-allyl-4-(3-hydroxyphenyl)oxazol-2-yl)methoxy)-2,6-difluorobenzamide], in data set [3] (mouse, plasma), the clearance amounted to 270 mL/min/kg. Further, in data set [3] (mouse, plasma, read-out: AUC), the AUC is 200 ng·h/mL.

`CCCc1oc(COc2ccc(F)c(C(N)=O)c2F)nc1-c1cccc(O)c1` [Compound M, 2,6-difluoro-3-((4-(3-hydroxyphenyl)-5-propyloxazol-2-yl)methoxy)benzamide] gave a clearance in data set [3] (mouse, plasma) of 369 mL/min/kg. Besides, in data set [3] (mouse, plasma, read-out: AUC), the AUC is 100 ng·h/mL.

With `COc1ncc(-c2csc(COc3ccc(F)c(C(N)=O)c3F)n2)s1` [J, 2,6-difluoro-3-((2′-methoxy-4,5′-bithiazol-2-yl)methoxy)benzamide], the clearance in data set [3] (mouse, plasma) amounted to 180 mL/min/kg. Also, the AUC in data set [3] (mouse, plasma, read-out: AUC) worked out at 300 ng·h/mL.

For the compound `COc1cnc(-c2csc(COc3ccc(F)c(C(N)=O)c3F)n2)cn1` [G, 2,6-difluoro-3-((4-(5-methoxypyrazin-2-yl)thiazol-2-yl)methoxy)benzamide], the clearance in data set [3] (mouse, plasma) is 82 mL/min/kg. Besides, the AUC in data set [3] (mouse, plasma, read-out: AUC) is 600 ng·h/mL.

As to `NC(=O)c1c(F)ccc(OC(CC(O)CO)c2nc(-c3ccc(C(F)(F)F)cc3)c(Br)o2)c1F` (stereo not shown) [Compound 156, 3-(1-(5-bromo-4-(4-(trifluoromethyl)phenyl)oxazol-2-yl)-3,4-dihydroxybutoxy)-2,6-difluorobenzamide], in data set [2] (S. aureus (ATCC29213)), the “S. aureus MIC (μg/mL) Activity Range” value is “C (activity>1.0 μg/mL-16 μg/mL)”.

Take `Cc1cc(Cl)ccc1-c1nc(C(CO)Oc2ccc(F)c(C(N)=O)c2F)oc1Br` (stereo not shown) [Compound 239, 3-(1-(5-bromo-4-(4-chloro-2-methylphenyl)oxazol-2-yl)-2-hydroxyethoxy)-2,6-difluorobenzamide]: the MIC in data set [2] is < 0.25 µg/mL.

On to `CCOC(=O)C(Oc1ccc(F)c(C(N)=O)c1F)c1coc(-c2ccc(C(F)(F)F)cc2)n1` (stereo not shown) [Compound 129, ethyl 2-(3-carbamoyl-2,4-difluorophenoxy)-2-(2-(4-(trifluoromethyl)phenyl)oxazol-4-yl)acetate], for which, in data set [2], the MIC is 1 to 16 µg/mL (≈ 2.13 to 34 µM).

Consider `CN(Cc1ccccn1)C(=O)OCC(Oc1ccc(F)c(C(N)=O)c1F)c1nc(-c2ccc(C(F)(F)F)cc2)c(Br)o1` (stereo not shown) [Compound 191, 2-(5-bromo-4-(4-(trifluoromethyl)phenyl)oxazol-2-yl)-2-(3-carbamoyl-2,4-difluorophenoxy)ethyl methyl(pyridin-2-ylmethyl)carbamate], for which, in data set [2], the MIC fell in the range of 1 to 16 µg/mL (≈ 1.53 to 24.4 µM).

Turning to `COc1cnc(-c2csc(C(CO)Oc3ccc(F)c(C(N)=O)c3F)n2)cn1` (stereo not shown) [Compound 261, 2,6-difluoro-3-(2-hydroxy-1-(4-(5-methoxypyrazin-2-yl)thiazol-2-yl)ethoxy)benzamide], the MIC in data set [2] is 1 to 16 µg/mL (≈ 2.45 to 39.2 µM).

Regarding `NC(=O)c1c(F)ccc(OC(CO)c2nc(-c3ccc(C(F)(F)F)cc3)c(C3CC3)o2)c1F` (stereo not shown) [Compound 269, 3-(1-(5-cyclopropyl-4-(4-(trifluoromethyl)phenyl)oxazol-2-yl)-2-hydroxyethoxy)-2,6-difluorobenzamide], the MIC in data set [2] is 1 to 16 µg/mL (≈ 2.14 to 34.2 µM).

Consider `CC(Oc1ccc(F)c(C(N)=O)c1F)c1nc(-c2ccc(OC(F)(F)F)cc2)c(Br)o1` (stereo not shown) [Compound 16, 3-(1-(5-bromo-4-(4-(trifluoromethoxy)phenyl)oxazol-2-yl)ethoxy)-2,6-difluorobenzamide], for which the MIC in data set [2] lay within 0.25 to 1 µg/mL (≈ 0.493 to 1.97 µM). In data set [3], the “AUC” value came to 1400 ng·h/mL and the “CL” value is 36 mL/min/kg.

Turning to `CC(=O)OCC(Oc1ccc(F)c(C(N)=O)c1F)c1nc(-c2ccc(C(F)(F)F)cc2)oc1Br` (stereo not shown) [Compound 137, 2-(5-bromo-2-(4-(trifluoromethyl)phenyl)oxazol-4-yl)-2-(3-carbamoyl-2,4-difluorophenoxy)ethyl acetate], the MIC in data set [2] is > 16 µg/mL.

For `NC(=O)c1c(F)ccc(OC(CNC(=O)OCc2ccccc2)c2nc(-c3ccc(C(F)(F)F)cc3)co2)c1F` (stereo not shown) [Compound 276, benzyl (2-(3-carbamoyl-2,4-difluorophenoxy)-2-(4-(4-(trifluoromethyl)phenyl)oxazol-2-yl)ethyl)carbamate], the MIC in data set [2] is 1 to 16 µg/mL (≈ 1.78 to 28.5 µM).

These data come from US9511073B2, “Aromatic amides and uses thereof” (TAXIS Pharmaceuticals, Inc., priority 2011, dated 2016).
